Results on 9 molecules are retold here after patent US20260242419A1, “A CYCLIC PEPTIDE FOR TRAPPING INTERLEUKIN-1 BETA” (Merck Sharp & Dohme LLC, priority 2023, published 2026).

Starred links: 1 amine or outer side, 2 acyl side, 3 side chain; linkers in the order of their positions; H or OH if unused. Non-standard residues stand in square brackets, D forms with d. Residues, ends and D or L forms follow the SMILES beside them. *: point of attachment. dPro(4R-(4-pyridylmethyl)) = O=C(O)[C@H]1C[C@@H](Cc2ccncc2)CN1; Benzoyl(4-piperazinyl) = O=C(c1ccc(N2CCN([*:1])CC2)cc1)[*:2]; Trp(βS-Me,4-F) = C[C@@H](c1c[nH]c2cccc(F)c12)[C@H](N)C(=O)O; Bip(4'-COOH) = N[C@@H](Cc1ccc(-c2ccc(C(=O)O)cc2)cc1)C(=O)O; dPro(4R-Bzl(4-F)) = O=C(O)[C@H]1C[C@@H](Cc2ccc(F)cc2)CN1; dPro(3S-(4-F-Bn)) = O=C(O)[C@@H]1NCC[C@@H]1Cc1ccc(F)cc1; Ala(pyrimidin-5-yl) = N[C@@H](Cc1cncnc1)C(=O)O; Phe(4-COOH) = N[C@@H](Cc1ccc(C(=O)O)cc1)C(=O)O; Phe(4-tBu) = CC(C)(C)c1ccc(C[C@H](N)C(=O)O)cc1; X34 = C[N+](C)(C)CC[C@H](N[*:1])C(=O)[*:2]; Phe(3-Cl) = N[C@@H](Cc1cccc(Cl)c1)C(=O)O; Pro(cis-4-F) = O=C(O)[C@@H]1C[C@H](F)CN1; Ala(4-THP) = N[C@@H](CC1CCOCC1)C(=O)O; X6 = O=C([C@H](Cc1ccncn1)N[*:1])[*:2]; AEF = NCCOc1ccc(C[C@H](N)C(=O)O)cc1; d(αMeD) = C[C@@](N)(CC(=O)O)C(=O)O; 4Pal = N[C@@H](Cc1ccncc1)C(=O)O; Isonicotinoyl = O=C(c1ccncc1)*; Dab = NCC[C@H](N)C(=O)O; Aib = CC(C)(N)C(=O)O; Bz = O=C(c1ccccc1)*

T1 sequence (P01584 117-269): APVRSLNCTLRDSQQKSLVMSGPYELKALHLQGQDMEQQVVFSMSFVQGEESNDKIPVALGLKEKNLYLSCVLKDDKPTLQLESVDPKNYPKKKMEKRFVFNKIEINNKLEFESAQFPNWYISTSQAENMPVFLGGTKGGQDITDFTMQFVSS

The assay concerns the target T1, IL-1β (Homo sapiens, UniProt P01584).
T1 construct: purchased BioLegend 579404
The assay is described as follows: IL-6 assay in MRC5 cells: inhibition of IL-1β induced IL-6 secretion (AlphaLISA). The format is cell-based. Particulars: inhibition of IL-1β induced IL-6 secretion in MRC5 cells; read-out: MRC5 IC50. The method, boiled down: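 Compound was pre-incubated 1 h at ambient temperature with recombinant human IL-1β at 2λ EC80 before adding human lung fibroblast MRC5 cells (3000/well) in EMEM with 0.025% BSA. After overnight culture at 37 °C, 5% CO2, secreted IL-6 in conditioned medium was measured by AlphaLISA; IC50 from 4-parameter logistic fits.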
On the technique in general: Alpha assays give light when donor and acceptor beads are brought close together.
As for `C[C@@H](c1c[nH]c2cccc(F)c12)[C@@H]1NC(=O)[C@@H]2C[C@H](F)CN2C(=O)CNC(=O)[C@H](Cc2ccc(C(=O)O)cc2)NC(=O)[C@H](Cc2ccncc2)NC(=O)[C@H](Cc2ccc(OCCNC(=O)c3ccc(N4CCNCC4)cc3)cc2)NC(=O)[C@H]2C[C@@H](Cc3ccncc3)CN2C(=O)CNC(=O)[C@H](CCN)NC(=O)[C@H](CCC(N)=O)NC(=O)[C@H](Cc2cncnc2)NC(=O)C(C)(C)NC(=O)[C@H](Cc2c[nH]c3ccccc23)NC(=O)[C@H](CO)NC(=O)C(C)(C)NC1=O` [Example 306] (cyclo([AEF](Benzoyl(4-piperazinyl))[4Pal][Phe(4-COOH)]G[Pro(cis-4-F)][Trp(βS-Me,4-F)][Aib]SW[Aib][Ala(pyrimidin-5-yl)]Q[Dab]G[dPro(4R-(4-pyridylmethyl))])), the IC50 was 0.02 nM.
The same measure for `C[C@@H](c1c[nH]c2cccc(F)c12)[C@@H]1NC(=O)[C@@H]2C[C@H](F)CN2C(=O)CNC(=O)[C@H](Cc2ccc(C(=O)O)cc2)NC(=O)[C@H](Cc2ccncc2)NC(=O)[C@H](Cc2ccc(OCCNC(=O)c3ccncc3)cc2)NC(=O)[C@H]2C[C@@H](Cc3ccncc3)CN2C(=O)CNC(=O)[C@H](CCN)NC(=O)[C@H](CCC(N)=O)NC(=O)[C@H](Cc2cncnc2)NC(=O)C(C)(C)NC(=O)[C@H](Cc2c[nH]c3ccccc23)NC(=O)[C@H](CO)NC(=O)C(C)(C)NC1=O` [Example 307] (cyclo([AEF](Isonicotinoyl)[4Pal][Phe(4-COOH)]G[Pro(cis-4-F)][Trp(βS-Me,4-F)][Aib]SW[Aib][Ala(pyrimidin-5-yl)]Q[Dab]G[dPro(4R-(4-pyridylmethyl))])): 0.018 nM; for `C[C@@H](c1c[nH]c2cccc(F)c12)[C@@H]1NC(=O)[C@@H]2C[C@H](F)CN2C(=O)CNC(=O)[C@H](Cc2ccc(C(=O)O)cc2)NC(=O)[C@H](Cc2ccncc2)NC(=O)[C@H](Cc2ccc(OCCNC(=O)c3ccccc3)cc2)NC(=O)[C@H]2C[C@@H](Cc3ccncc3)CN2C(=O)CNC(=O)[C@H](CCN)NC(=O)[C@H](CCC(N)=O)NC(=O)[C@H](Cc2cncnc2)NC(=O)C(C)(C)NC(=O)[C@H](Cc2c[nH]c3ccccc23)NC(=O)[C@H](CO)NC(=O)C(C)(C)NC1=O` [Example 308] (cyclo([AEF](Bz)[4Pal][Phe(4-COOH)]G[Pro(cis-4-F)][Trp(βS-Me,4-F)][Aib]SW[Aib][Ala(pyrimidin-5-yl)]Q[Dab]G[dPro(4R-(4-pyridylmethyl))])): 0.013 nM; for `CC(=O)NCCOc1ccc(C[C@@H]2NC(=O)[C@H]3C[C@@H](Cc4ccncc4)CN3C(=O)CNC(=O)[C@H](CCN)NC(=O)[C@H](CCC(N)=O)NC(=O)[C@H](Cc3cccc(Cl)c3)NC(=O)C(C)(C)NC(=O)[C@H](Cc3c[nH]c4ccccc34)NC(=O)[C@H](CCC(=O)O)NC(=O)C(C)(C)NC(=O)[C@H]([C@@H](C)c3c[nH]c4cccc(F)c34)NC(=O)[C@@H]3C[C@H](F)CN3C(=O)CNC(=O)[C@H](Cc3ccc(C(=O)O)cc3)NC(=O)[C@H](Cc3ccncc3)NC2=O)cc1` [Example 309] (cyclo([AEF](Ac)[4Pal][Phe(4-COOH)]G[Pro(cis-4-F)][Trp(βS-Me,4-F)][Aib]EW[Aib][Phe(3-Cl)]Q[Dab]G[dPro(4R-(4-pyridylmethyl))])): 0.018 nM.
As for `CC(=O)NCCOc1ccc(C[C@@H]2NC(=O)[C@H]3C[C@@H](Cc4ccncc4)CN3C(=O)CNC(=O)[C@H](CCN)NC(=O)[C@H](CCC(N)=O)NC(=O)[C@H](Cc3ccc(O)cc3)NC(=O)C(C)(C)NC(=O)[C@H](Cc3c[nH]c4ccccc34)NC(=O)[C@H](CCC(=O)O)NC(=O)C(C)(C)NC(=O)[C@H]([C@@H](C)c3c[nH]c4cccc(F)c34)NC(=O)[C@@H]3C[C@H](F)CN3C(=O)CNC(=O)[C@H](Cc3ccc(C(=O)O)cc3)NC(=O)[C@H](Cc3ccncc3)NC2=O)cc1` [Example 310] (cyclo([AEF](Ac)[4Pal][Phe(4-COOH)]G[Pro(cis-4-F)][Trp(βS-Me,4-F)][Aib]EW[Aib]YQ[Dab]G[dPro(4R-(4-pyridylmethyl))])), the half-inhibitory concentration (IC50) was determined as 0.017 nM.
Consider `C[C@@H](c1c[nH]c2cccc(F)c12)[C@@H]1NC(=O)[C@@H]2C[C@H](F)CN2C(=O)CNC(=O)[C@H](Cc2ccc(C(=O)O)cc2)NC(=O)[C@H](Cc2ccncc2)NC(=O)[C@H](Cc2ccc(C(C)(C)C)cc2)NC(=O)[C@H]2C[C@@H](Cc3ccncc3)CN2C(=O)CNC(=O)[C@H](CCN)NC(=O)[C@H](CCC(N)=O)NC(=O)[C@H](Cc2cncnc2)NC(=O)C(C)(C)NC(=O)[C@H](Cc2c[nH]c3ccccc23)NC(=O)[C@H](CCC(=O)O)NC(=O)C(C)(C)NC1=O` [Example 311] (cyclo([Phe(4-tBu)][4Pal][Phe(4-COOH)]G[Pro(cis-4-F)][Trp(βS-Me,4-F)][Aib]EW[Aib][Ala(pyrimidin-5-yl)]Q[Dab]G[dPro(4R-(4-pyridylmethyl))])), for which the IC50 came out at 0.017 nM.
`C[C@@H](c1c[nH]c2cccc(F)c12)[C@@H]1NC(=O)[C@@H]2C[C@H](F)CN2C(=O)CNC(=O)[C@H](Cc2ccc(C(=O)O)cc2)NC(=O)[C@H](Cc2ccncc2)NC(=O)[C@H](Cc2ccc(-c3ccc(C(=O)O)cc3)cc2)NC(=O)[C@H]2[C@@H](Cc3ccc(F)cc3)CCN2C(=O)CNC(=O)[C@H](CCN)NC(=O)[C@H](CCC(N)=O)NC(=O)[C@H](Cc2ccncn2)NC(=O)C(C)(C)NC(=O)[C@H](Cc2c[nH]c3ccccc23)NC(=O)[C@H](CCC(=O)O)NC(=O)C(C)(C)NC1=O` [Example 312] (cyclo([Bip(4'-COOH)][4Pal][Phe(4-COOH)]G[Pro(cis-4-F)][Trp(βS-Me,4-F)][Aib]EW[Aib][X6]Q[Dab]G[dPro(3S-(4-F-Bn))])): the IC50 came out at 0.017 nM.
Next, `C[C@@H](c1c[nH]c2cccc(F)c12)[C@@H]1NC(=O)[C@@H]2C[C@H](F)CN2C(=O)CNC(=O)[C@H](Cc2ccc(C(=O)O)cc2)NC(=O)[C@H](Cc2ccncc2)NC(=O)[C@H](Cc2ccc(-c3ccc(C(=O)O)cc3)cc2)NC(=O)[C@H]2C[C@@H](Cc3ccc(F)cc3)CN2C(=O)CNC(=O)[C@H](CCN)NC(=O)[C@H](CCC(N)=O)NC(=O)[C@H](CC2CCOCC2)NC(=O)[C@@](C)(CC(=O)O)NC(=O)[C@H](Cc2c[nH]c3ccccc23)NC(=O)[C@H](CO)NC(=O)C(C)(C)NC1=O` [Example 313] (cyclo([Bip(4'-COOH)][4Pal][Phe(4-COOH)]G[Pro(cis-4-F)][Trp(βS-Me,4-F)][Aib]SW[d(αMeD)][Ala(4-THP)]Q[Dab]G[dPro(4R-Bzl(4-F))])): 0.015 nM.
The same measure for `C[C@@H](c1c[nH]c2cccc(F)c12)[C@@H]1NC(=O)[C@@H]2C[C@H](F)CN2C(=O)CNC(=O)[C@H](Cc2ccc(C(=O)O)cc2)NC(=O)[C@H](Cc2ccncc2)NC(=O)[C@H](Cc2ccc(-c3ccc(C(=O)O)cc3)cc2)NC(=O)[C@H]2C[C@@H](Cc3ccc(F)cc3)CN2C(=O)CNC(=O)[C@H](CCN)NC(=O)[C@H](CCC(N)=O)NC(=O)[C@H](CC[N+](C)(C)C)NC(=O)C(C)(C)NC(=O)[C@H](Cc2c[nH]c3ccccc23)NC(=O)[C@H](CO)NC(=O)C(C)(C)NC1=O` [Example 314] (cyclo([Bip(4'-COOH)][4Pal][Phe(4-COOH)]G[Pro(cis-4-F)][Trp(βS-Me,4-F)][Aib]SW[Aib][X34]Q[Dab]G[dPro(4R-Bzl(4-F))])): 0.02 nM.

One may read the IC50 as the concentration that gives 50% inhibition.
